Test results reported in patent US6469057B1, “Methods for in vivo reduction of free radical levels and compositions useful therefor” (MCW Research Foundation, Inc., priority 1995, dated 2002).
“Also recorded” adds a separate entry of the source.

Assays:
[1] = system: NO; assay: Ex vivo EPR measurement of [(MGD)2/Fe-NO] levels in the urine of normal mice
Protocol: Normal mice housed in a restraining tube were injected subcutaneously with 0.4 ml of the [(MGD)2/Fe] complex (326 mg/Kg of MGD and 34 mg/Kg of FeSO4). After 2 hours, the animals were sacrificed and the urine samples were collected from the urinary bladder. The urine sample, which was dark brown (characteristic of the presence of [(MGD)2/Fe] complex), was transferred to a quartz flat cell for EPR measurement. The spectra were recorded at 22° C. with an X-band EPR spectrometer, operating at 9.5 GHz. Instrument settings include 100-G field scan, 4-min scan time, 0.5-s time constant, 2.5-G modulation amplitude, 100-KHz modulation frequency and 100-mW microwave power. The concentrations of the [(MGD)2/Fe—NO] complex in the urine samples were calculated by comparing the signal intensities obtained from the samples to the signal intensity of a standard solution containing 0.1 mM of the [(MGD)2/Fe—NO] complex.
For inhibition experiments, mice were injected intraperitoneally with 50 mg/kg NMMA in saline immediately after the injection of the [(MGD)2/Fe] complex. In other experiments, mice were injected intravenously with 3 mg/kg dexamethasone in saline about 1.5 h before the injection of the [(MGD)2/Fe] complex. […] Acetylcholine chloride (Sigma) in saline was freshly prepared prior to subcutaneous injection at a dose of 67 mg/kg.
At 2 h after subcutaneous injection of an aliquot (0.4 ml) of the [(MGD)2/Fe] complex (326 mg/Kg of MGD and 34 mg/Kg of FeSO4) into normal mice (A) (and also in the presence of NMMA (50 mg/kg) (B), or of dexamethasone (3 mg/kg) (C)), the animals were sacrificed and the urine samples collected and transferred to a quartz flat cell for X-band (9.5 GHz) EPR measurement at 22° C.

[2] = system: NO; assay: Ex vivo EPR measurement of [(MGD)2/Fe-NO] levels in the urine of LPS-treated mice; conditions: for [(MGD)2/Fe-NO] present in LPS-treated mouse urine: urine 2 h later
Protocol: After 2 h, the mouse was sacrificed and the urine sample was collected from the urinary bladder, and immediately transferred to a quartz flat cell for X-band EPR measurement as described above in Example 2B. Inhibition experiments with NMMA or dexamethasone were performed as described above in Example 2A, except that the mice were treated with LPS prior to following the protocols for NO inhibition experiments. The procedures for S-band EPR measurement of wet tissues and blood samples were as described previously (Lai and Komarov, supra).
Thus, at 6 h after LPS treatment, mice were injected with the [(MGD)2/Fe] complex, with and without i.p. injection of NMMA (50 mg/kg). The mice were sacrificed at 2 h after injection of the [(MGD)2/Fe] complex. The urine samples were collected and the EPR measurement was carried out at 22° C.

Row | SMILES | [(MGD)2/Fe-NO] present in mouse urine ([1]; mouse, in vivo) | increase in urinary [(MGD)2/Fe-NO] levels ([1]; normal mice, acetylcholine 67 mg/kg s.c.) | effect on signal intensity of [(MGD)2/Fe-NO] in the urine of LPS-treated mice ([2]; NMMA 50 mg/kg i.p. at 6 h after LPS) | [(MGD)2/Fe-NO] present in LPS-treated mouse urine ([2]; NMMA 50 mg/kg i.p. at 6 h after LPS just prior to [(MGD)2/Fe]) | [(MGD)2/Fe-NO] present in LPS-treated mouse urine ([2]; NMMA 100 mg/kg i.p. at 6 h after LPS just prior to [(MGD)2/Fe]) | effect on the [(MGD)2/Fe-NO] EPR signal in urine ([1]; normal mice, NMMA 50 mg/kg i.p., dexamethasone 3 mg/kg i.v. pretreatment)
1 | CC(=O)OCC[N+](C)(C)C.[Cl-] [Acetylcholine, acetylcholine chloride] | 3.9 ± 0.8 (3) μM | 3 fold | – | – | – | –
2 | CNC(=N)NCCC[C@H](N)C(=O)O [NMMA, N^G-monomethyl-L-arginine] | – | – | markedly reduces the signal intensity; also recorded: markedly reducing the signal intensity | 3.6 ± 0.9 (4) | 7.3 ± 2.2 (3) | markedly reduced
